What was measured:
[1] = biological target: T1, human BK (hKCa1.1/β1) potassium channel (Homo sapiens, UniProt Q12791); test: BK QPatch HT assay; format: cell-based; details: 10 µM concentration (N=3)
T1 construct: expressed in transfected cells; host or cells: CHO cell line
Protocol: The effects of compounds on cloned human BK (hKCa1.1/β1) potassium channel (encoded by the human KCNMA1 and KCNMB1 genes) were examined in a CHO cell line using a QPatch HT® (Sophion Bioscience A/S, Denmark) assay. Onset and steady-state inhibition of hBK currents were measured using a voltage pulse pattern with a depolarizing test pulse (+100 mV amplitude, 200 ms duration) at 10 s intervals from a holding potential of −80 mV. The peak amplitude of the delayed outward current was measured for each test pulse. The compounds were evaluated at 10 μM in three cells for each compound, after a 3 minute compound application. The steady state inhibition produced by each compound was calculated.

[2] = test system: rat model of neuropathic pain; test: Neuropathic pain model (partial ligation of the sciatic nerve): paw withdrawal to mechanical pressure and cold (10° C.), general observations; format: in vivo; details: for changes in contralateral paw withdrawals and latencies: just attained significance at 3 hours on mechanical
Protocol: The efficacy of Compounds 1, 2, 3 and 4 was investigated using rat models of neuropathic and/or persistent inflammatory pain.
Subjects comprised male, Wistar Hanover rats, 6 animals per group (225±2 g for Compound 1 studies and Compound 2 studies; 214±1 g for Compound 3 studies; 236±1 g for Compound 4 studies).
Vehicle (12% Captisol®; 0.5% w/v HPMC and 0.1% w/v Tween-80; 5 ml/kg via the intraperitoneal route) was prepared using autoclaved deionized water not more than one week prior to use.
The details of the studies performed are outlined in Table 1.
The control for the neuropathic pain model was lamotrigine, administered at 30 mg/kg via oral delivery. The control for the inflammatory pain model was diclofenac, administered at 30 mg/kg via oral delivery. Statistical analysis was performed using one-way ANOVA, and comparisons were performed with time-matched vehicle group using Tukey's HSD test wherein * p<0.05, ** p<0.01, *** p<0.001.
Treatment groups were randomised and blinded. Groups of 6 rats were used.
Neuropathic pain was induced by partial ligation of the sciatic nerve. Briefly, the rats were anaesthetised (isoflurane/O2 inhalation), the left sciatic nerve exposed at mid-thigh level through a small incision and ⅓ to ½ of the nerve thickness tightly ligated within a 7.0 silk suture. The wound was closed with surgical glue. Animals were allowed to recover and tested 12-15 days following surgery.
Withdrawal thresholds or latencies were measured on both the ipsilateral (ligated) and contralateral (non-ligated) paws, prior to (predose) and then up to 24 h following drug or vehicle administration.
Pre-dose behavioural measurements were obtained by measuring paw withdrawals 14 days following nerve ligation; before the initiation of drug treatment. Following treatment, further readings were taken at 1, 3, 6 and 24 hour after administration.
Mechanical hyperalgesia was examined in a model of neuropathic pain by measuring paw withdrawal thresholds (PWT) to increasing mechanical force applied to the dorsal surface of the rat paw using an Analgesymeter (Ugo-Basile, Milan) equipped with a wedge-shaped probe (area 1.75 mm^2). Cut-off was set at 250 g and the end-point was taken as withdrawal of the hind paw. Both ipsilateral and contralateral paw withdrawal readings were taken.
Cold sensitivity was assessed using a commercially available cold-plate (Ugo Basile, Milan). The cold plate was allowed to stabilize for 5 minutes at the set temperature prior to testing. Paw withdrawal latencies (PWL) were determined with the cold-plate set at 10° C. The animals were lightly restrained and each hind paw in turn placed onto the surface of the cold-plate. The end point was taken as the withdrawal of the paw and recorded as the withdrawal latency for the ipsilateral and the contralateral paw. A maximum cut-off of 30 seconds was used for each paw.
In addition to behavioural pain readings, each rat was observed throughout the study for changes in general behaviour.
Data were expressed as withdrawal threshold (g) or withdrawal latencies (s) and percentage reversals calculated according to the following formula: […]
Statistical analysis was carried out on withdrawal threshold readings using ANOVA with repeated measures followed by Tukey's HSD test. The level for statistical significance was set as p<0.05.

[3] = Study 1 of each compound (Table 1), 60 mg/kg i.p., 3 hours post-dose
[4] = Study 1 of each compound, 60 mg/kg i.p.
[5] = Study 1 of each compound, 30 mg/kg i.p., 3 hours post-dose
[6] = Study 2, 10 mg/kg i.p., 3 hours post-dose
[7] = Study 2, 30 mg/kg i.p., 3 hours post-dose
[8] = Study 2, 60 mg/kg i.p., 3 hours post-dose
[9] = Study 1, 30 mg/kg i.p., 1 hour post-dose
[10] = Study 1, 60 mg/kg i.p., 1 hour post-dose

T1 sequence (Q12791 whole entry): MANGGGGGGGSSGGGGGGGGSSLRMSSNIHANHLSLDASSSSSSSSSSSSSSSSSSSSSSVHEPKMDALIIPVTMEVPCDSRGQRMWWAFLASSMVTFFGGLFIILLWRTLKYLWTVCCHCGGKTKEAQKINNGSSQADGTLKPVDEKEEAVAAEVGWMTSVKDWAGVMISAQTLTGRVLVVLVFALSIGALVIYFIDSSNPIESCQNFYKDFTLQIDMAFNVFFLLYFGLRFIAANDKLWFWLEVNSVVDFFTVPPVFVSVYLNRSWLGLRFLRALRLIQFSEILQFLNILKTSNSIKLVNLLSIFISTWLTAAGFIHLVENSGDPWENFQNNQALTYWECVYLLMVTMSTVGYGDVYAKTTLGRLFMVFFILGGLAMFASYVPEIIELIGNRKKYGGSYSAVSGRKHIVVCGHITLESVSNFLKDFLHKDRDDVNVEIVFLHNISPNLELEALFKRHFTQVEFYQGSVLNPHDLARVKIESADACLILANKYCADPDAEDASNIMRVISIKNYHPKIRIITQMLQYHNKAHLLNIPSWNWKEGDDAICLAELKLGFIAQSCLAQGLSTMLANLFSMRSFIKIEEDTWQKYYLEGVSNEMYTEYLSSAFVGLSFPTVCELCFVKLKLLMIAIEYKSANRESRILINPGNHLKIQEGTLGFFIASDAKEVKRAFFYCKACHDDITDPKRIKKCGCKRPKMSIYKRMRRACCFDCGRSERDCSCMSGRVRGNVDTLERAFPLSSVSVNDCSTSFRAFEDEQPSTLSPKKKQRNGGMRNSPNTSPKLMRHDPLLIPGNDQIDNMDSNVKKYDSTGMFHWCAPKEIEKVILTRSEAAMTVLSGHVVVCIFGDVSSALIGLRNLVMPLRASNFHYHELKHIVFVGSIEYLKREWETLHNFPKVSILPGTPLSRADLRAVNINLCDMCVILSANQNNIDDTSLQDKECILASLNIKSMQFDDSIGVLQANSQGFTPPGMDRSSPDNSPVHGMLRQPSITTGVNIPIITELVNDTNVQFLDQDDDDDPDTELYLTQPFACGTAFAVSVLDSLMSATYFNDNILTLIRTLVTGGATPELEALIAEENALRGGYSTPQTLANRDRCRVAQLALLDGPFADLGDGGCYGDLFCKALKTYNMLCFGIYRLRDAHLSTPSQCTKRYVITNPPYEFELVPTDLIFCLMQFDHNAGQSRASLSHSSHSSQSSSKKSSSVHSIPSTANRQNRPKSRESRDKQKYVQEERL
T1 sequence (Q16558 whole entry partner): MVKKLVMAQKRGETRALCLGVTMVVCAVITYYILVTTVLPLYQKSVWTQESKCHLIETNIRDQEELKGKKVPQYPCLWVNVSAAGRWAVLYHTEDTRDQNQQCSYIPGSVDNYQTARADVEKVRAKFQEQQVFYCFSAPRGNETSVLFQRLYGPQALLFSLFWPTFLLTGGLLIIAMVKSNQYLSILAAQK

effect on BK channel currents [1]	behavioural changes in the rats (general observations) ([2]; Study 1 of each compound)	changes in contralateral paw withdrawals and latencies ([2]; Study 2)	SMILES	reversal of cold sensitivity [2, 3]	reversal of mechanical sensitivity [2, 3]	efficacy at 6 hours post-dose [2, 4]	reversal of cold sensitivity [2, 5]	reversal of cold sensitivity [2, 6]	reversal of mechanical sensitivity [2, 6]	reversal of cold sensitivity [2, 7]	reversal of mechanical sensitivity [2, 7]	reversal of cold sensitivity [2, 8]	reversal of mechanical sensitivity [2, 8]	further results
No significant effect	no behavioural changes noted	–	Cc1ccc(Oc2ccc(-n3c(C)n[nH]c3=O)cn2)c2c1OCC21CC1 [Compound 3, 5-methyl-4-{6-[(7-methylspiro[1-benzofuran-3,1′-cyclopropan]-4-yl)oxy]pyridin-3-yl}-2,4-dihydro-3H-1,2,4-triazol-3-one]	52%	46%	activity was still evident	–	–	–	–	–	–	–	statistical significance against mechanical and cold hyperalgesia ([2]; Compound 3 neuropathic study, 60 mg/kg i.p.): attained statistical significance; changes in contralateral paw withdrawals/latencies ([2]; Compound 3 neuropathic study, 30 and 60 mg/kg i.p.): no significant changes
No significant effect	–	small changes	Cc1ccc(Oc2ncc(N3C(=O)NC(C)(C)C3=O)cn2)c2c1OCC21CC1 [Compound 1, 5,5-dimethyl-3-[2-(7-methylspiro[2H-benzofuran-3,1′-cyclopropane]-4-yl)oxypyrimidin-5-yl]imidazolidine-2,4-dione]	125%	68%	still efficacious	52%	39%	31%	68%	73%	76%	81%	statistical activity of the lower dose ([2]; Study 1, 30 mg/kg i.p.): only statistically active against mechanical hyperalgesia; reversal of mechanical sensitivity ([2]; Study 1, 30 mg/kg i.p., 3 hours post-dose): 51%; flaccidity (general observation) ([2]; Study 1, 1 and 3 hour post-dose, both doses): slightly flaccid; rats with mild flaccidity ([2]; Study 2, 30 mg/kg i.p.): 1/6; rats with mild flaccidity ([2]; Study 2, 60 mg/kg i.p.): 2/6
No significant effect	no apparent behavioural changes	small changes	CC[C@@]1(C)NC(=O)N(c2cnc(Oc3ccc(C)c(OC(F)(F)F)c3)nc2)C1=O [Compound 2, (5R)-5-ethyl-5-methyl-3-[2-({4-methyl-3-[(trifluoromethyl)oxy]phenyl}oxy)-5-pyrimidinyl]-2,4-imidazolidinedione]	–	–	–	55%	35%	31%	70%	72%	95%	81%	reversal of cold sensitivity [2, 9]: 42%; reversal of mechanical sensitivity [2, 9]: 53%; reversal of cold sensitivity [2, 10]: 71%; reversal of mechanical sensitivity [2, 10]: 47%; duration of efficacy ([2]; Study 1, both doses (30 and 60 mg/kg i.p.)): efficacious at 3 hours by not by 6 hours post-dose; behavioural changes in the rats (general observations) ([2]; Study 2): no apparent behavioural changes
